Source: patent publication US20130115671A1, “ENZYMES FROM CONIDIOBOLUS BREFELDIANUS AND PROCESS FOR PREPARATION THEREOF” (Council of Scientific and Industrial Research, priority 2010, published 2013)
Several values for one entry are separate records, joined by “and”; a condition that tells them apart may be missing. Equal entries are not always repeated.

Experiments:
[1] = system: protease of Conidiobolus brefeldianus MTCC 5185; assay: Effect of inhibitors on protease activity (PMSF, EDTA, iodoacetate, DMSO); type: biochemical; conditions: pre-incubated 1 h, pH 8.0; 20 mM EDTA, 10 mM Iodoacetate, 1 mM PMSF (in DMSO), DMSO
Description: This example illustrates the effect of inhibitors on protease activity of Conidiobolus brefeldianus MTCC 5185. Following inhibitors were studied: phenylmethylsulfonyl fluoride (PMSF), ethylene-diaminetetraacetic acid (EDTA), iodoacetic acid, and dimeth ylsulphoxide (DMSO). The crude culture filtrate grown as described in example 3 was concentrated by ultra-filtration on PM-10 and YM-3 membranes as described in example 27 and used for inhibition studies. Both the protease preparations were pre-incubated in 100 mM Tris-HCl buffer (pH 8.0) with each inhibitor for 1 h and the residual protease activity was measured at 50° C., pH 9.0. Protease without inhibitor served as control.

[2] = system: protease from Conidiobolus brefeldianus MTCC 5185; assay: Stability of protease in presence of organic solvents at 37° C.; type: physicochemical; conditions: 20% (v/v) solvent
Method: (§1) This example illustrates the effect of water miscible as well as water immiscible organic solvents on stability of crude protease at 37° C. […] Samples were removed at different time intervals and residual activity was estimated. Sample without organic solvent served as control.

[3] = system: protease from Conidiobolus brefeldianus MTCC 5185; assay: Stability of protease in presence of organic solvents at 28° C.; type: physicochemical; set-up: key to residual activity of protease, 0 h / residual activity of protease, 12 h: % of initial activity with respective solvent (initial = 100%); conditions: crude protease, 20% (v/v) solvent
Method: as §1, with “28°” for “37°”, “control. Initial activity with respective solvents was taken as 100% (Table 17). […] (Table 17).” for “control.”

[4] = system: protease of Conidiobolus brefeldianus MTCC 5185; assay: Effect of inhibitors on protease activity (TPCK, TLCK, Benzamidine); type: biochemical; conditions: 5 mM inhibitor, crude protease pre-incubated 30 min, pH 8.0
Method: This example illustrates the effect of inhibitors on protease activity of Conidiobolus brefeldianus MTCC 5185. Following inhibitors were studied: N-tosyl-L-phenylalanine chloromethyl ketone (TPCK), N-tosyl-L-lysine chloromethyl ketone (TLCK), and Benzamidine. Crude protease was pre-incubated with each inhibitor in 100 mM Tris-HCl buffer (pH 8.0) for 30 min and the residual protease activity was measured 50° C., pH 9.0. Protease without inhibitor served as control.

Row | Residual Activity (%) of protease, 30 min ([2]; pH 7, 30 min) | Residual Activity (%) of protease, 60 min ([2]; pH 7, 60 min) | Residual Activity (%) of protease, 120 min ([2]; pH 7, 120 min) | Residual Activity (%) of protease, 240 min ([2]; pH 7, 240 min) | Residual Activity (%) of protease, 0 ([2]; crude protease, pH 7, 0 min) | residual activity of protease, 0 h ([3]; 0 h) | residual activity of protease, 5 h ([3]; 5 h) | residual activity of protease, 12 h ([3]; 12 h) | Molecule | Inhibition (%) PM-10 Retentate [1] | Inhibition (%) YM-3 Retentate [1] | Inhibition (%) [4]
1 | 69.48% | 68.94% | 48.70% | 28.53% | 100% | 100 | 98.12 | 54.55 | C[S+](C)[O-] [DMSO, dimethylsulphoxide] | 3.02% | 1.37% | –
2 | – | – | – | – | – | – | – | – | N-tosyl-L-lysine chloromethyl ketone [TLCK] | – | – | 29% and 29.22%
3 | – | – | – | – | – | – | – | – | N-tosyl-L-phenylalanine chloromethyl ketone [TPCK] | – | – | 9% and 9.02%
